Values after ≈ are worked out from the molar mass of the structure shown.
How the values were obtained:
Type in all cases: physicochemical
Settings in all cases: organic solvent or mixture
[1] = Solubility of 3 in 2-MeTHF/heptane mixtures
Description: A series of experiments were performed to test the solubility of 3 in a mixture of 2-MeTHF and heptane.

[2] = Solubility of 3 in HOAc, 2-MeTHF and THF
Description: Although the reaction was high yielding, the amount of solvent required to perform the reaction limited the throughput due to the poor solubility of 3 in EtOAc. It was therefore desirable to find an alternate solvent for this reaction to prevent the risk of poor conversion while increasing the volume efficiency. To address this issue, the solubility of 3 was evaluated in HOAc and THF in addition to 2-MeTHF. […] In one embodiment, THF is used for the hydrogenation reaction. In another embodiment, 2-MeTHF is used for the hydrogenation reaction. […] In one embodiment, when the hydrogenation reaction was run at 40 psi hydrogen pressure at 40° C., the reaction was typically complete in 2 to 3 hours. The final variable which was investigated was catalyst loading. The initial 10 wt % loading was reduced to 5 wt % without any decrease in reaction time, yield or purity.

[3] = Solubility of 6 in extraction solvents
Description: While this initial trial was very promising, in subsequent experiments on larger scale, complications were encountered. One issue was that during the neutralization of acetic acid, emulsions were often obtained. Multiple solvent systems were investigated and the solubility of 6 was evaluated to estimate the efficiency of the extraction (Table 17).

[4] = Solubility of 7 in a selection of solvents
Excerpt: Isolation of 7 from the MSA aqueous layer was completed by addition of DCM followed by basification with aqueous NaOH to extract the 7 free base into the DCM layer. […] Isolation from the DCM solution was developed by concentrating the volume of the DCM to induce crystallization followed by the addition of heptane as an anti-solvent. […] Possible solvents candidates which could be used to efficiently extract 7 were limited to DCM due to the poor solubility of 7 in a variety of common solvents (Table 19).

Structure (SMILES): CC(C)(C)OC(=O)NC1(c2ccc(Nc3nc(-c4ccccc4)ccc3[N+](=O)[O-])cc2)CCC1 [Compound 3, tert-butyl (1-(4-((3-nitro-6-phenylpyridin-2-yl)amino)phenyl)cyclobutyl)carbamate]
- solubility ([1]; 2-MeTHF/heptane 1/0 (v/v), 2-MeTHF/heptane (v/v) 1/0, 25° C.): 100000 µg/mL (≈ 217 mM)
- solubility ([1]; 2-MeTHF/heptane 2/8 (v/v), 2-MeTHF/heptane (v/v) 2/8, 25° C.): 300 µg/mL (≈ 0.651 mM)
- solubility ([1]; 2-MeTHF/heptane 3/7 (v/v), 2-MeTHF/heptane (v/v) 3/7, 25° C.): 1200 µg/mL (≈ 2.61 mM)
- solubility ([1]; 2-MeTHF/heptane 4/6 (v/v), 2-MeTHF/heptane (v/v) 4/6, 25° C.): 3800 µg/mL (≈ 8.25 mM)
- solubility ([1]; 2-MeTHF/heptane 5/5 (v/v), 2-MeTHF/heptane (v/v) 5/5, 25° C.): 4500 µg/mL (≈ 9.77 mM)
- solubility ([1]; 2-MeTHF/heptane 6/4 (v/v), 2-MeTHF/heptane (v/v) 6/4, 25° C.): 8000 µg/mL (≈ 17.4 mM)
- solubility ([1]; 2-MeTHF/heptane 7/3 (v/v), 2-MeTHF/heptane (v/v) 7/3, 25° C.): 13000 µg/mL (≈ 28.2 mM)
- solubility ([1]; 2-MeTHF/heptane 8/2 (v/v), 2-MeTHF/heptane (v/v) 8/2, 25° C.): 23000 µg/mL (≈ 49.9 mM)
- solubility ([1]; 2-MeTHF/heptane 9/1 (v/v), 2-MeTHF/heptane (v/v) 9/1, 25° C.): 32000 µg/mL (≈ 69.5 mM)
- solubility ([2]; in 2-MeTHF): 100000 µg/mL (≈ 217 mM)
- solubility ([2]; in HOAc): 24800 µg/mL (≈ 53.9 mM)
- solubility ([2]; in THF): 155000 µg/mL (≈ 337 mM)

Structure (SMILES): CC(C)(C)OC(=O)NC1(c2ccc(-n3c(-c4cccnc4N)nc4ccc(-c5ccccc5)nc43)cc2)CCC1 [Compound 6, tert-butyl (1-(4-(2-(2-aminopyridin-3-yl)-5-phenyl-3H-imidazo[4,5-b]pyridin-3-yl)phenyl)cyclobutyl)carbamate]
- solubility ([3]; Solvent 2-MeTHF): 25000 µg/mL (≈ 46.9 mM)
- solubility ([3]; Solvent DCM): 126000 µg/mL (≈ 237 mM)
- solubility ([3]; Solvent EtOAc): 6600 µg/mL (≈ 12.4 mM)
- solubility ([3]; Solvent IPAc): 2900 µg/mL (≈ 5.44 mM)
- solubility ([3]; Solvent MTBE): 690 µg/mL (≈ 1.3 mM)
- solubility ([3]; Solvent THF): 110000 µg/mL (≈ 207 mM)
- solubility ([3]; Solvent Toluene): 4500 µg/mL (≈ 8.45 mM)

Structure (SMILES): Nc1ncccc1-c1nc2ccc(-c3ccccc3)nc2n1-c1ccc(C2(N)CCC2)cc1 [Compound 7, 3-(3-(4-(1-aminocyclobutyl)phenyl)-5-phenyl-3H-imidazo[4,5-b]pyridin-2-yl)pyridin-2-amine]
- solubility ([4]; Solvent 2-MeTHF): 4800 µg/mL (≈ 11.1 mM)
- solubility ([4]; Solvent DCM): 73000 µg/mL (≈ 169 mM)
- solubility ([4]; Solvent EtOAc): 5600 µg/mL (≈ 12.9 mM)
- solubility ([4]; Solvent IPAc): 2900 µg/mL (≈ 6.7 mM)
- solubility ([4]; Solvent MTBE): 760 µg/mL (≈ 1.76 mM)
- solubility ([4]; Solvent THF): 24000 µg/mL (≈ 55.5 mM)
- solubility ([4]; Solvent Toluene): 9300 µg/mL (≈ 21.5 mM)
